The record followed here is patent US20240181081A1, “Compositions and Methods for Treatment of Myotonic Dystrophy Type 1 with CRISPR/SACAS9” (Vertex Pharmaceuticals Incorporated, priority 2021, published 2024).

In data set [1] the test system is CTG repeat expansion in the 3′ UTR of human DMPK gene. In words: DOUBLE-cut screening: CTG repeat excision by loss-of-signal ddPCR in primary DM1 patient myoblasts. The data set is classed as cell-based. Particulars: sgRNA pair RNP, mean of upstream and downstream ddPCR assays; for % of CTG repeat excision efficiency by ddPCR (DNA-PKi): 3 μM Compound 6 for 48 hrs; for % of CTG repeat excision efficiency by ddPCR (Vehicle): DMSO 48 hrs. The method, then: (§1) RNPs were assembled with recombinant SaCas9 protein (Aldevron) and chemically modified sgRNAs (Synthego) at a ratio of 1:3 (protein:sgRNA). For SINGLE-cut screening, RNP complexes were assembled with 30 pmol of SaCas9 and 90 pmol of sgRNA in P5 Primary Cell Nucleofector Solution (Lonza). After incubation at room temperature for 20 minutes, 10 μL of RNP complex was mixed with two hundred thousand primary myoblasts resuspended in 10 μL of P5 Nucleofector Solution. For DOUBLE-cut screening, RNP complexes were first assembled for individual sgRNAs with 20 pmol of SaCas9 protein and 60 pmol of sgRNAs in 5 μL of P5 Nucleofector Solution. After incubation at room temperature for 20 minutes, the two RNP complexes (one for upstream sgRNA and one for downstream sgRNA) were mixed at 1:1 ratio and then further mixed with two hundred thousand primary myoblasts resuspended in 10 μL of P5 Nucleofector Solution.
(§2) The Nucleofector 96-well Shuttle System (Lonza) was used to deliver the SaCa9/sgRNA RNPs into primary DM1 patient myoblasts using the nucleofection program CM138. Following nucleofection, myoblasts from each well of nucleofection shuttle were split into six wells of the 96-well cell culture plate (Greiner, 655090) coated with matrigel. The first three wells were treated with DMSO for 48 hrs before changing to fresh myoblast growth medium, and the other three wells were treated with 3 μM of DNA-PKi Compound 6 for 48 hrs before changing to fresh myoblast growth medium. 72 hrs post nucleofection, two wells of DMSO-treated myoblasts and two wells of DNA-PKi-treated myoblasts from each nucleofection were harvested for genomic DNA extraction using the Kingfisher Flex purification system (Thermal Fisher), whereas one well of DMSO-treated myoblasts and one well of DNA-PKi-treated myoblasts were stained for RNA foci by FISH staining.
The primers and probes of ddPCR were designed using the online primer design software Primer3Plus (http://www.bioinformatics.nl/cgi-bin/primer3plus/primer3plus.cgi). The two Target primers/probe sets were used to detect CTG repeat excision, and the Reference primers/probe set was used to amplify a region located in Exon 1 of human DMPK gene and it served as a reference control for the Target sets. The 24 μL of ddPCR reaction consisted of 12 μL of Supermix for Probes (no dUTP) (Bio-Rad Laboratories), 1 μL of Reference primers mix (21.6 μM), 1 μL of Reference probe (6 μM), 1 μL of Target primers mix (21.6 μM), 1 μL of Target probe (6 μM), and 8 μL of sample genomic DNA. Droplets were generated using probe oil with the QX200 Droplet Generator (Bio-Rad Laboratories). Droplets were transferred to a 96-well PCR plate, sealed and cycled in a C1000 deep well Thermocycler (Bio-Rad Laboratories) under the following cycling protocol: 1 cycle at 95° C. for 10 min; 40 cycles of 94° C. for 30 sec, and 58° C. for 1 min; 1 cycle at 98° C. for 10 min (for enzyme inactivation). The cycled plate was then transferred and read in the FAM and HEX channels using the Bio-Rad QX200 Droplet Reader (Bio-Rad Laboratories). ddPCR analysis was performed with the Bio-Rad QuantaSoft Pro Software.
Next, DOUBLE-cut screening was performed to assess the efficiency of paired sgRNAs-induced CTG repeat excision and RNA foci reduction. 90 SaCas9 sgRNA pairs formed by one upstream sgRNA and one downstream sgRNA were assembled with recombinant SaCas9 protein into RNP complex and nucleofected into primary DM1 patient myoblasts. Nucleofected myoblasts were treated with either DMSO (vehicle) or 3 μM of Compound 6 (DNA-PKi) for 48 hrs. 72 hrs post nucleofection, myoblasts were subjected to either genomic DNA isolation or RNA foci staining.
One upstream and one downstream loss-of-signal droplet digital PCR (ddPCR) assays were used to determine the efficiency of CTG repeat excision. ddPCR signals would be abolished upon excision of the CTG repeat expansion in these loss-of-signal ddPCR assays. […]

Data set [2] concerns CUG RNA foci in primary DM1 patient myoblasts. In words: DOUBLE-cut screening: FISH staining of RNA foci in primary DM1 patient myoblasts. The settings on record: sgRNA pair RNP, 72 hrs post nucleofection; for % of CUG foci free nuclei (DNA-PKi): 3 μM Compound 6 for 48 hrs; for % of CUG foci free nuclei (Vehicle): DMSO 48 hrs. The data set is classed as cell-based, human. The method, then: as §1, §2
Primary myoblasts were fixed for 15 min with 4% paraformaldehyde (PFA) and washed five times with 1×PBS for 10 min each at room temperature. Before staining, cells were permeabilized with 0.5% triton X-100 in 1×PBS for 5 min at room temperature, and then washed with 30% formamide and 2× saline-sodium citrate (SSC) mixture for 10 min at room temperature. Cells were then stained with 1 ng/μL of Cy3-PNA(CAG) 5 probe (PNA Bio, F5001) diluted in 30% formamide, 2×SSC, 2 μg/mL BSA, 66 μg/mL yeast tRNA, and 2 mM vanadyl complex for 15 min at 80° C. Following probe staining, cells were then washed in 30% formamide and 2×SSC mixture for 30 min at 42° C., then washed in 30% formamide and 2×SSC mixture for 30 min at 37° C., and then washed in 1×SSC solution for 10 min at room temperature, and finally washed in 1×PBS for 10 min at room temperature. Cells were next stained with anti-MBNL1 antibody (Santa Cruz, 3A4) diluted in 1% bovine serum albumin (BSA) for overnight at 4° C., and washed twice with 1×PBS for 10 min each at room temperature. Cells were then incubated with the secondary antibody goat […] Alexa 647 (Thermo Fisher, A32728) diluted in 1% BSA for 1 hr at room temperature, and washed twice with 1×PBS for 10 min each at room temperature. Next, cells were stained with Hoechst solution (Thermo Fisher, H3569) at 0.1 mg/ml for 5 min, and washed once with 1×PBS for 5 min. PBS was aspirated and fresh 100 μl of fresh PBS was added to each well. High-throughput acquisition of images was completed with the ImageXpress Micro Confocal High-Content Imaging System (Molecular Devices). RNA foci quantifications were accomplished with a customized analysis module of the MetaXpress program (Molecular Devices).
Next, DOUBLE-cut screening was performed to assess the efficiency of paired sgRNAs-induced CTG repeat excision and RNA foci reduction. 90 SaCas9 sgRNA pairs formed by one upstream sgRNA and one downstream sgRNA were assembled with recombinant SaCas9 protein into RNP complex and nucleofected into primary DM1 patient myoblasts. […]

With “SaU2 + SaD12: SaCas9 sgRNA pair, SEQ ID NOs: 2 and 20 (guide 1 ACTCAGTCTTCCAACGGGGCCC; guide 2 TCAGTGCATCCAAAACGTGGAT; listed as DNA, chemistry not fully specified)”, in data set [1], the “% of CTG repeat excision efficiency by ddPCR (DNA-PKi)” value is 58.68% and the “% of CTG repeat excision efficiency by ddPCR (Vehicle)” value is given as 36.47%. In data set [2], the “% of CUG foci free nuclei (DNA-PKi)” value is recorded as 83.77% and the “% of CUG foci free nuclei (Vehicle)” value is 76.56%.

As for “SaU2 + SaD13: SaCas9 sgRNA pair, SEQ ID NOs: 2 and 21 (guide 1 ACTCAGTCTTCCAACGGGGCCC; guide 2 CCCAACAACCCCAATCCACGTT; listed as DNA, chemistry not fully specified)”, in data set [1], the “% of CTG repeat excision efficiency by ddPCR (DNA-PKi)” value amounted to 51.47% and the “% of CTG repeat excision efficiency by ddPCR (Vehicle)” value was determined as 30.92%. Further, in data set [2], the “% of CUG foci free nuclei (DNA-PKi)” value was 75.83% and the “% of CUG foci free nuclei (Vehicle)” value came to 39.86%.

Consider “SaU2 + SaD15: SaCas9 sgRNA pair, SEQ ID NOs: 2 and 23 (guide 1 ACTCAGTCTTCCAACGGGGCCC; guide 2 GACAATAAATACCGAGGAATGT; listed as DNA, chemistry not fully specified)”, for which, in data set [1], the “% of CTG repeat excision efficiency by ddPCR (DNA-PKi)” value is given as 60.64% and the “% of CTG repeat excision efficiency by ddPCR (Vehicle)” value amounted to 41.70%. Moreover, in data set [2], the “% of CUG foci free nuclei (DNA-PKi)” value is 85.85% and the “% of CUG foci free nuclei (Vehicle)” value is 76.57%.

Turning to “SaU2 + SaD17: SaCas9 sgRNA pair, SEQ ID NOs: 2 and 25 (guide 1 ACTCAGTCTTCCAACGGGGCCC; guide 2 TTTATTCGCGAGGGTCGGGGGT; listed as DNA, chemistry not fully specified)”, in data set [1], the “% of CTG repeat excision efficiency by ddPCR (DNA-PKi)” value came to 52.34% and the “% of CTG repeat excision efficiency by ddPCR (Vehicle)” value is 31.11%. For the same substance, in data set [2], the “% of CUG foci free nuclei (DNA-PKi)” value stood at 78.68% and the “% of CUG foci free nuclei (Vehicle)” value is on record as 55.20%.

Regarding “SaU2 + SaD18: SaCas9 sgRNA pair, SEQ ID NOs: 2 and 26 (guide 1 ACTCAGTCTTCCAACGGGGCCC; guide 2 GGGCCTTTTATTCGCGAGGGTC; listed as DNA, chemistry not fully specified)”, in data set [1], the “% of CTG repeat excision efficiency by ddPCR (DNA-PKi)” value turned out to be 48.16% and the “% of CTG repeat excision efficiency by ddPCR (Vehicle)” value is 19.28%. In data set [2], the “% of CUG foci free nuclei (DNA-PKi)” value is given as 69.93% and the “% of CUG foci free nuclei (Vehicle)” value is reported as 32.87%.

Regarding “SaU2 + SaD19: SaCas9 sgRNA pair, SEQ ID NOs: 2 and 27 (guide 1 ACTCAGTCTTCCAACGGGGCCC; guide 2 AGGACCCCCACCCCCGACCCTC; listed as DNA, chemistry not fully specified)”, in data set [1], the “% of CTG repeat excision efficiency by ddPCR (DNA-PKi)” value came out at 56.62% and the “% of CTG repeat excision efficiency by ddPCR (Vehicle)” value is on record as 49.08%. Also, in data set [2], the “% of CUG foci free nuclei (DNA-PKi)” value came to 80.94% and the “% of CUG foci free nuclei (Vehicle)” value stood at 62.27%.

Regarding “SaU2 + SaD20: SaCas9 sgRNA pair, SEQ ID NOs: 2 and 28 (guide 1 ACTCAGTCTTCCAACGGGGCCC; guide 2 AGATGGAGGGCCTTTTATTCGC; listed as DNA, chemistry not fully specified)”, in data set [1], the “% of CTG repeat excision efficiency by ddPCR (DNA-PKi)” value is on record as 61.08% and the “% of CTG repeat excision efficiency by ddPCR (Vehicle)” value was determined as 36.35%. Further, in data set [2], the “% of CUG foci free nuclei (DNA-PKi)” value amounted to 82.08% and the “% of CUG foci free nuclei (Vehicle)” value is 74.86%.

Consider “SaU3 + SaD2: SaCas9 sgRNA pair, SEQ ID NOs: 3 and 10 (guide 1 ACTCCGGGGCCCCGTTGGAAGA; guide 2 TCGGCCAGGCTGAGGCCCTGAC; listed as DNA, chemistry not fully specified)”, for which, in data set [1], the “% of CTG repeat excision efficiency by ddPCR (DNA-PKi)” value turned out to be 54.49% and the “% of CTG repeat excision efficiency by ddPCR (Vehicle)” value turned out to be 50.85%. In addition, in data set [2], the “% of CUG foci free nuclei (DNA-PKi)” value amounted to 82.73% and the “% of CUG foci free nuclei (Vehicle)” value stood at 77.08%.

Take “SaU3 + SaD3: SaCas9 sgRNA pair, SEQ ID NOs: 3 and 11 (guide 1 ACTCCGGGGCCCCGTTGGAAGA; guide 2 CAACGATAGGTGGGGGTGCGTG; listed as DNA, chemistry not fully specified)”: in data set [1], the “% of CTG repeat excision efficiency by ddPCR (DNA-PKi)” value is 57.46% and the “% of CTG repeat excision efficiency by ddPCR (Vehicle)” value was 36.25%. Moreover, in data set [2], the “% of CUG foci free nuclei (DNA-PKi)” value was 78.72% and the “% of CUG foci free nuclei (Vehicle)” value came to 51.28%.

With “SaU3 + SaD4: SaCas9 sgRNA pair, SEQ ID NOs: 3 and 12 (guide 1 ACTCCGGGGCCCCGTTGGAAGA; guide 2 ACTTTGCGAACCAACGATAGGT; listed as DNA, chemistry not fully specified)”, in data set [1], the “% of CTG repeat excision efficiency by ddPCR (DNA-PKi)” value was determined as 64.28% and the “% of CTG repeat excision efficiency by ddPCR (Vehicle)” value is 47.22%. For the same substance, in data set [2], the “% of CUG foci free nuclei (DNA-PKi)” value is on record as 87.42% and the “% of CUG foci free nuclei (Vehicle)” value turned out to be 83.67%.

As for “SaU3 + SaD5: SaCas9 sgRNA pair SaU3 and SaD5; table prints SEQ ID NOS: 2 and 13 (guide 1 ACTCCGGGGCCCCGTTGGAAGA; guide 2 GGGTTTGGCAAAAGCAAATTTC; listed as DNA, chemistry not fully specified)”, in data set [1], the “% of CTG repeat excision efficiency by ddPCR (DNA-PKi)” value turned out to be 60.74% and the “% of CTG repeat excision efficiency by ddPCR (Vehicle)” value is listed as 43.61%. Also, in data set [2], the “% of CUG foci free nuclei (DNA-PKi)” value is recorded as 84.63% and the “% of CUG foci free nuclei (Vehicle)” value turned out to be 73.56%.

For the substance “SaU3 + SaD6: SaCas9 sgRNA pair, SEQ ID NOs: 3 and 14 (guide 1 ACTCCGGGGCCCCGTTGGAAGA; guide 2 CTTTTGCCAAACCCGCTTTTTC; listed as DNA, chemistry not fully specified)”, in data set [1], the “% of CTG repeat excision efficiency by ddPCR (DNA-PKi)” value is 50.32% and the “% of CTG repeat excision efficiency by ddPCR (Vehicle)” value is 24.10%. Further, in data set [2], the “% of CUG foci free nuclei (DNA-PKi)” value amounted to 64.84% and the “% of CUG foci free nuclei (Vehicle)” value is 31.37%.
